Assay results reported in PMC8280778, “^18F-ASEM Imaging for Evaluating Atherosclerotic Plaques Linked to α7-Nicotinic Acetylcholine Receptor” (Frontiers in Bioengineering and Biotechnology, 2021).
Like-named read-outs stand apart in the source and are kept apart here.

Assays:
[1] = target: α7nAChR (Mus musculus, UniProt P49582)
Method: ApoE^–/– mice (n = 4; weight, 25–30 g) and normal mice (n = 4; weight, 25–30 g) were randomly selected; the chosen ApoE^–/– mice were fed with 21% fat and 0.15% cholesterol supplement for 11–12 weeks.
The high-performance liquid chromatography (HPLC)-purified ^18F-ASEM [[…], dissolved in 0.2 ml normal saline, containing 5% dimethyl sulfoxide (DMSO)] was injected into tail vein of ApoE^–/– mice and normal mice. ApoE^–/– mice, positioned prone position, were anesthetized (1–2% isoflurane) through inhalation. After anesthesia, mice were injected with 5.56 MBq (150 μCi) ^18F-ASEM through the tail vein and underwent a dynamic imaging for 1 h. Dynamic PET scanning were carried out at 5, 10, 15, 30, and 60 min after injection, and biological distributions were analyzed as previously described by our group ([Wang et al., 2021]). Briefly, the regions of interest (ROIs) were cycled from 3D ordered subset expectation maximization (OSEM 3D) reconstruction images, then % ID/g value was calculated by Inveon Research Workplace 4.0 (IRW4.0).

[2] = target: α7nAChR; design: method as in Gao et al., 2013; Wang et al., 2018; conditions: affinity for α7nAChR; ref Gao et al., 2013; Wang et al., 2018; cited from earlier work
[3] = target: T1, α7nAChR (Oryctolagus cuniculus, UniProt A0A0H4CUK0); assay: PET/CT imaging of abdominal aorta atherosclerotic plaques in New Zealand rabbits; format: in vivo; conditions: model rabbits, PET/CT 30 min after injection
T1 construct: from tissue; host or cells: living New Zealand rabbits (abdominal aorta with atherosclerotic plaques)
T1 sequence (A0A0H4CUK0 25-504): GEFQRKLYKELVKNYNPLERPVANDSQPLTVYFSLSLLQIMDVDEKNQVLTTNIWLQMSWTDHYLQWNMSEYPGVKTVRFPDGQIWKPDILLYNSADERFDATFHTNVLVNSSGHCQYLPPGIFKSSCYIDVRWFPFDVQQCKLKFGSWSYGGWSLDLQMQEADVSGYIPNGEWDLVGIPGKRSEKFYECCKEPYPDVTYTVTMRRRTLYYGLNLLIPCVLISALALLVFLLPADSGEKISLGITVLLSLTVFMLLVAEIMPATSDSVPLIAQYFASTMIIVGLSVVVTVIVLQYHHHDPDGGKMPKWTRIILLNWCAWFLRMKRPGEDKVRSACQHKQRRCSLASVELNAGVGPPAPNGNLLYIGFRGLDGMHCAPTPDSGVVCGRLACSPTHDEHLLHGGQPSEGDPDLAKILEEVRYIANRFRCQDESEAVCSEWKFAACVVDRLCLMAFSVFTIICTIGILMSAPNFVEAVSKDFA
Method: New Zealand rabbits (n = 4; weight, 2.5–3.0 kg) were fed with high-fat diet for 14 weeks. The balloon-sprained and injured experiment was carried out at the third week after 2 weeks of high-fat diet. First, rabbits were anesthetized by 10% chloral hydrate, a 3-cm incision was conducted in the right inguinal area to expose the right femoral artery; then, the right femoral artery was punctured by Seldinger technique. Second, an angiographic catheter with double lumen balloon was sent to the aortic arch under fluoroscopy. Third, the balloon was bulged and pulled down to the bifurcation of the distal iliac artery of the abdominal aorta for three times. Lastly, the catheter and sheath were removed, and the operational incisions were sutured (Figure 2).
First, rabbits (n = 4) were anesthetized by 10% chloral hydrate (2 ml/kg). Then, ^18F-ASEM solution (74 MBq in 0.2 ml normal saline) was injected into the right ear vein of rabbits. After that, the imaging procedure was conducted 30 min after injection of ^18F-ASEM and lasted for 10 min performed by PET/CT (Discovery IQ 2.0 GE). The injection of ^18F-FDG (74 MBq in 0.2 ml normal saline) and PET/CT imaging were performed in the same strategy on the next day. The reconstruction mode was super iterative. The % ID/g value was worked out in the same protocol as mentioned above through IRW 4.0 software.

[4] = biological distribution of the tracer in normal mice (dynamic PET); format: in vivo
[5] = system: α7nAChR; design: method as in Gao et al., 2013; Wang et al., 2018; conditions: specificity for α7nAChR; ref Gao et al., 2013; Wang et al., 2018; cited from earlier work

Sequence of α7nAChR (Mus musculus, UniProt P49582) (P49582 23-502): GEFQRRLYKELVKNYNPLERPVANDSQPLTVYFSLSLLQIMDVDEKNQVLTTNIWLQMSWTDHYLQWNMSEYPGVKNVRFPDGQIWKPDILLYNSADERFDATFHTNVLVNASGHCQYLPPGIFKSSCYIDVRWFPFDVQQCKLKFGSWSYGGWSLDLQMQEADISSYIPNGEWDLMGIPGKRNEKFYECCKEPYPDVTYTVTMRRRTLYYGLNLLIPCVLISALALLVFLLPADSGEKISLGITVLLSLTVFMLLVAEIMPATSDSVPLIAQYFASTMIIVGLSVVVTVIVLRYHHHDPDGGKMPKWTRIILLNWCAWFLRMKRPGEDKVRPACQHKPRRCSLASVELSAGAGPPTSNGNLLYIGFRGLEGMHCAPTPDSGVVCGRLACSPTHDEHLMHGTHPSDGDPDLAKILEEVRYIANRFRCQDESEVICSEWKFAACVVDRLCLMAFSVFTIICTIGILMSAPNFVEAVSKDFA

In the case of ^18F-FDG, the “uptake in the carotid artery (PET imaging)” value ([1]; mouse, in vivo) is reported as “slight”.
For `O=S1(=O)c2cc(N3CCN4CCC3CC4)ccc2-c2cccc(F)c21` [^18F-ASEM], the Ki [2] is listed as 0.4 nM.
In the case of `O=S1(=O)c2cc(N3CCN4CCC3CC4)ccc2-c2cccc([18F])c21` [^18F-ASEM], the “uptake in plaques at abdominal arterial scratches zones” value [3] is reported as “remarkable uptake”, the “time of peak uptake in the kidney” value ([4]; after injection) is reported as 5 min and the “time of peak uptake in the liver” value ([4]; after injection) is reported as 15 min. For the same molecule, the “uptake in the muscle” value ([4]; compared with other organs) was “lowest uptake”, the BPND [5] was 3.9–6.6 and the “uptake in the arteries” value ([1]; ApoE–/– mice) was 4.05 ± 0.64 ID%/g. The “uptake in the arteries” value ([1]; ApoE–/– mice, 5 min after injection) was 4.39 ± 1.08 ID%/g, the “uptake in the arteries” value ([1]; ApoE–/– mice, 15 min after injection) was 4.20 ± 0.46 ID%/g and the “uptake in the arteries” value ([1]; ApoE–/– mice, 60 min after injection) was 3.80 ± 0.43 ID%/g. The “uptake in the carotid artery (PET imaging)” value ([1]; ApoE–/– mouse) was “more ^18F-ASEM gathering”, the “uptake in the arteries” value ([1]; control group mice) was 2.40 ± 0.41 ID%/g and the “uptake in the arteries” value ([1]; control group mice, 5 min after injection) was 2.35 ± 0.58 ID%/g. The “uptake in the arteries” value ([1]; control group mice, 15 min after injection) was 2.46 ± 0.34 ID%/g, the “uptake in the arteries” value ([1]; control group mice, 60 min after injection) was 2.70 ± 0.28 ID%/g and the “PET signal in the normal group” value ([1]; normal mice) was “no signal”.
